From patent US20250283049A1, “AGENT FOR CULTURING ORGANOID IN ABSENCE OF EXTRACELLULAR MATRIX” (KEIO UNIVERSITY, priority 2022, published 2025)

Key:
Assay type in all cases: cell-based
[1] = test system: human large intestine-derived organoid; assay: Culture of organoids in absence of Matrigel with LATS kinase inhibitor; cell number by ATP (CellTiter-Glo 3D)
Description: In this experimental example, a human small intestine-derived organoid and human large intestine-derived organoid established in the presence of Matrigel (registered trademark) were cultured in the absence of Matrigel (registered trademark) and in the presence of a LATS kinase inhibitor (final concentration: 10 μM), and their dynamics were observed. The procedure was the same as in Experimental Example 1, except that each organoid was cultured in the absence of Matrigel (registered trademark).
The lower left panel of FIG. 3 is a photograph of a control (Ctrl) human large intestine-derived organoid cultured in the absence of Lats-IN, and the lower center panel of FIG. 3 is a photograph of a human large intestine-derived organoid cultured in the presence of Lats-IN. The scale bar is 100 μm. The lower right panel of FIG. 3 is a graph showing the results of measuring cell number in the human large intestine-derived organoids cultured in the presence of the control (Ctrl) and Lats-IN. The vertical axis of the graph represents luminescence intensity (relative value) indicating the amount of ATP present. […]
FIG. 8 presents graphs showing the results of measuring the proliferation of the human small intestine-derived and human large intestine-derived organoids in the absence of Lats-IN (Ctrl), in the presence of Lats-IN (Lats-IN), in the presence of Lats-IN and MYF01-37 (Lats-IN+MYF), and in the presence of MYF01-37 (MYF). The cell proliferation was measured by measuring ATP using a commercially available kit (product name “CellTiter-Glo 3D,” Promega Corporation). The vertical axis of the graph represents luminescence intensity (relative value) indicating the amount of ATP present. […]
FIG. 26 presents graphs showing the results of measuring cell number in each organoid after 6 days of culture by measuring ATP using a commercially available kit (product name “CellTiter-Glo 3D,” Promega Corporation). The vertical axis of the graph represents luminescence intensity (relative value) indicating the amount of ATP present.

[2] = test system: human small intestine-derived organoids; assay: Immunostaining for localization of YAP and Ki67; settings: 10 μM Lats-IN; in both presence and absence of Matrigel; approximately 10% without Lats-IN
Description: Human small intestine-derived organoids and human large intestine-derived organoids were cultured in the absence and presence of Matrigel (registered trademark) and in the absence and presence of a LATS kinase inhibitor (final concentration: 10 μM) in the same manner as in Experimental Example 2. Subsequently, immunostaining was performed to confirm the localization of YAP. In addition, Ki67, a marker for cell proliferation, was detected to confirm proliferating cells.
The fields of view in the second, third, and fourth panels from the top correspond to the area enclosed in the square in the uppermost panel.
The fields of view in the second, third, and fourth panels from the top correspond to the area enclosed in the square in the uppermost panel. The scale bar represents 50 μm. […]
FIG. 7 is a graph summarizing the results of FIGS. 5 and 6. As a result, in both the presence and absence of Matrigel (registered trademark), in the absence of Lats-IN, YAP was localized in the cytoplasm, and when the number of Ki67-positive cells, which indicates cell proliferation, was counted, the percentage of Ki67-positive cells was approximately 10% of the total cells. In contrast, in both the presence and absence of Matrigel (registered trademark), in the presence of Lats-IN, the number of cells in which YAP was localized in the nucleus was counted. […]

[3] = test system: phosphorylated YAP (Ser127); assay: Examination of phosphorylation of YAP by Western blotting in human small intestine-derived organoids; settings: 10 μM; in both presence and absence of Matrigel; compared to when Lats-IN is absent
Description: Human small intestine-derived organoids were cultured in the absence and presence of Matrigel (registered trademark) and in the absence and presence of a LATS kinase inhibitor (final concentration: 10 μM), and phosphorylation of YAP was confirmed by Western blotting.
In FIG. 4, “pYAP” indicates phosphorylated YAP, and “YAP” indicates total YAP (the sum of phosphorylated YAP and non-phosphorylated YAP). The antibody against phosphorylated YAP used was phospho-YAP (Ser127) (#4911, Cell Signaling Technology, Inc.). The antibody against total YAP used was total-YAP (#14074, Cell Signaling Technology, Inc.).

[4] = test system: human small intestine-derived organoids; assay: Niche factor removal; continuous passaging P0 to P16 in absence of Matrigel; settings: Lats-IN 10 μM
Description: FIG. 15 is a graph showing the results of measuring the proliferation of human small intestine-derived organoids cultured in the absence of Matrigel (registered trademark), in the absence or presence of Lats-IN (final concentration: 10 μM), under conditions in which all WRENAIF niche factors were added, and under conditions in which some of these niche factors were removed. In FIG. 15, P0 to P16 indicate passage numbers 0 to 16. In addition, the dark colors in the graph indicate successful passaging, while the light colors indicate unsuccessful passaging.

[5] = test system: human large intestine-derived organoids dissociated into single cells; assay: Organoid formation from single cells (Examination 2); settings: absence of Matrigel, presence of TRULI 10 μM
Description: After dissociating human large intestine-derived organoids into single cells, organoid formation from the single cells was observed.
FIG. 27 is a graph showing the results of organoid formation from the single cells in the presence (+) or absence (−) of Matrigel (registered trademark) and in the absence (−) or presence (+, final concentration: 10 μM) of TRULI. […] In addition, the vertical axis of the graph represents the percentage (%) of cells that formed organoids among the seeded single cells.

O=C(N=c1sccn1Cc1ccccc1)c1c[nH]c2ncccc12 [Lats-IN]
cell proliferation (ATP luminescence) ([1]; Experimental Example 5, Lats-IN 10 μM alone): activated | cell proliferation (cell number, ATP luminescence) ([1]; final concentration 10 μM, 7 days of culture, vs control): significantly activated | percentage of Ki67-positive cells [2]: ≥ 50 % of the total cells | phosphorylation of YAP [3]: significantly suppressed | continuous passaging in medium lacking any of the WRENAIF niche factors [4]: continuous passaging was not possible | organoid formation from single cells [5]: proliferated from single cells and formed organoids
